According to ChEMBL document CHEMBL4507310, “Data for DCP probe A-1211212” (2021):

Key:
[1] = target: MAO-B (amine oxidase [flavin-containing] B) (Homo sapiens, UniProt P27338); assay: MAO-B (h) recombinant enzyme Eurofins-Cerep enzyme and uptake assay; set-up: incubation time 60 min, incubation temperature 37°C, substrate/stimulus/tracer D-Luciferin derivative (4 µM); details: probe D-Luciferin derivative (4 µM), compound concentration 10 uM, read-out: % Inhibition of Control Values (Mean n=2)
[2] = target: T1, Alpha-2A adrenergic receptor (Homo sapiens) (UniProt P08913); assay: Alpha2A (h) Eurofins-Cerep binding assay; set-up: ligand concentration 1 nM; details: filed as antagonist, Compound concentration 10.0 uM
T1 sequence (whole entry): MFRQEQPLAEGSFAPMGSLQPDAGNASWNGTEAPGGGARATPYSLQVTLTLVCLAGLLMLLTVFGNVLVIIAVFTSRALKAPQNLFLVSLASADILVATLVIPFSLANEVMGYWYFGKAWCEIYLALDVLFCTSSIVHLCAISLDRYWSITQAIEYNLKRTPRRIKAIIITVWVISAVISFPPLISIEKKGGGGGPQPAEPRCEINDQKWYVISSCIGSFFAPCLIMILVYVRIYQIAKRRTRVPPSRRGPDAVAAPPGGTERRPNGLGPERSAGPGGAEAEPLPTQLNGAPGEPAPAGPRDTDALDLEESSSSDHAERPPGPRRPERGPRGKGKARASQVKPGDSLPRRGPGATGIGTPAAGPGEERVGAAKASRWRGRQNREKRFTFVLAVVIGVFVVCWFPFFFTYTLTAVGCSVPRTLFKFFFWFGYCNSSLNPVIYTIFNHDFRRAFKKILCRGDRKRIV

[3] = target: Beta-2 adrenergic receptor (Homo sapiens) (UniProt P07550); assay: Beta2 (h) Eurofins-Cerep binding assay; set-up: ligand concentration 0.3 nM; details: filed as antagonist, Compound concentration 10.0 uM
[4] = target: Type-1 angiotensin II receptor (Homo sapiens) (UniProt P30556); assay: AT1 (h) Eurofins-Cerep binding assay; set-up: ligand concentration 0.05 nM; details: filed as antagonist, Compound concentration 10.0 uM
[5] = target: B2 bradykinin receptor (Homo sapiens) (UniProt P30411); assay: B2 (h) Eurofins-Cerep binding assay; set-up: ligand concentration 0.3 nM; details: filed as agonist, Compound concentration 10.0 uM
[6] = target: Glutamate NMDA receptor (Rattus norvegicus) (UniProt P35439+Q00959+Q00960+Q00961+Q62645+Q8VHN2+Q9R1M7); assay: NMDA Eurofins-Cerep binding assay; assay type: protein-complex assay; set-up: ligand concentration 5 nM; details: filed as antagonist, Compound concentration 10.0 uM
[7] = target: Neuropeptide Y receptor type 1 (Homo sapiens) (UniProt P25929); assay: Y1 (h) Eurofins-Cerep binding assay; set-up: ligand concentration 0.025 nM; details: filed as agonist, Compound concentration 10.0 uM
[8] = test system: Tyrosine-protein kinase ABL1 (Homo sapiens), P00519 [T315I]; details: Compound concentration 1000.0 nM
[9] = test system: Tyrosine-protein kinase ABL1 (Homo sapiens), P00519 [Y253F]; details: Compound concentration 1000.0 nM
[10] = target: RAC-alpha serine/threonine-protein kinase (Homo sapiens) (UniProt P31749); details: Compound concentration 1000.0 nM
[11] = test system: ALK tyrosine kinase receptor (Homo sapiens), Q9UM73 [L1196M]; details: Compound concentration 1000.0 nM
[12] = target: Aurora kinase B (Homo sapiens) (UniProt Q96GD4); details: Compound concentration 1000.0 nM
[13] = target: Aurora kinase C (Homo sapiens) (UniProt Q9UQB9); details: Compound concentration 1000.0 nM
[14] = target: Calcium/calmodulin-dependent protein kinase type 1B (Homo sapiens) (UniProt Q6P2M8); details: Compound concentration 1000.0 nM
[15] = target: Macrophage colony-stimulating factor 1 receptor (Homo sapiens) (UniProt P07333); details: Compound concentration 1000.0 nM
[16] = target: Casein kinase II subunit alpha (Homo sapiens) (UniProt P68400); details: Compound concentration 1000.0 nM
[17] = target: Serine/threonine-protein kinase DCLK2 (Homo sapiens) (UniProt Q8N568); details: Compound concentration 1000.0 nM
[18] = test system: Epidermal growth factor receptor (Homo sapiens), P00533 [L858R]; details: Compound concentration 1000.0 nM
[19] = target: Ephrin type-A receptor 5 (Homo sapiens) (UniProt P54756); details: Compound concentration 1000.0 nM
[20] = target: Focal adhesion kinase 1 (Homo sapiens) (UniProt Q05397); details: Compound concentration 1000.0 nM
[21] = test system: Receptor-type tyrosine-protein kinase FLT3 (Homo sapiens), P36888 [D835Y]; details: Compound concentration 1000.0 nM
[22] = target: Inhibitor of nuclear factor kappa-B kinase subunit alpha (Homo sapiens) (UniProt O15111); details: Compound concentration 1000.0 nM
[23] = target: Mitogen-activated protein kinase 8 (Homo sapiens) (UniProt P45983); details: Compound concentration 1000.0 nM
[24] = target: Tyrosine-protein kinase Lck (Homo sapiens) (UniProt P06239); details: Compound concentration 1000.0 nM
[25] = target: LIM domain kinase 2 (Homo sapiens) (UniProt P53671); details: Compound concentration 1000.0 nM
[26] = target: MAP/microtubule affinity-regulating kinase 3 (Homo sapiens) (UniProt P27448); details: Compound concentration 1000.0 nM
[27] = target: Platelet-derived growth factor receptor beta (Homo sapiens) (UniProt P09619); details: Compound concentration 1000.0 nM
[28] = target: Membrane-associated tyrosine- and threonine-specific cdc2-inhibitory kinase (Homo sapiens) (UniProt Q99640); details: Compound concentration 1000.0 nM
[29] = target: Serine/threonine-protein kinase PknB (Mycobacterium tuberculosis) (UniProt P9WI81); details: Compound concentration 1000.0 nM
[30] = target: Serine/threonine-protein kinase D1 (Homo sapiens) (UniProt Q15139); details: Compound concentration 1000.0 nM
[31] = target: Protein-tyrosine kinase 2-beta (Homo sapiens) (UniProt Q14289); details: Compound concentration 1000.0 nM
[32] = test system: Proto-oncogene tyrosine-protein kinase receptor Ret (Homo sapiens), P07949 [V804L]; details: Compound concentration 1000.0 nM
[33] = test system: Proto-oncogene tyrosine-protein kinase receptor Ret (Homo sapiens), P07949 [V804M]; details: Compound concentration 1000.0 nM
[34] = target: Ribosomal protein S6 kinase alpha-5 (Homo sapiens) (UniProt O75582); details: Compound concentration 1000.0 nM
[35] = target: Serine/threonine-protein kinase SBK1 (Homo sapiens) (UniProt Q52WX2); details: Compound concentration 1000.0 nM
[36] = target: SRSF protein kinase 3 (Homo sapiens) (UniProt Q9UPE1); details: Compound concentration 1000.0 nM
[37] = target: Serine/threonine-protein kinase WNK1 (Homo sapiens) (UniProt Q9H4A3); details: Compound concentration 1000.0 nM
[38] = target: 5-hydroxytryptamine receptor 1B (Homo sapiens) (UniProt P28222); details: Compound concentration 10.0 uM

Casein kinase II subunit alpha (Homo sapiens), sequence (P68400 whole entry, looked up): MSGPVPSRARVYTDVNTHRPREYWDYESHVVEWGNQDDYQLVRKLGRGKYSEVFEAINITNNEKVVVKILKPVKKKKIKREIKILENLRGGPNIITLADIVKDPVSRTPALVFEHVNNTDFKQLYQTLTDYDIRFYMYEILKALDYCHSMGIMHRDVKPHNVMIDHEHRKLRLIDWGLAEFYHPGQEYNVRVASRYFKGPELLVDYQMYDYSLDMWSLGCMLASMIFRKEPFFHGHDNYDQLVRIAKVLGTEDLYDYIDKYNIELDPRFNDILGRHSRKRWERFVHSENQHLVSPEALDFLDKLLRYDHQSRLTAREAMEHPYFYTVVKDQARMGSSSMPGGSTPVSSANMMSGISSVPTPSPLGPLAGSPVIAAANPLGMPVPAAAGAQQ
MAP/microtubule affinity-regulating kinase 3 (Homo sapiens), sequence (P27448 whole entry, looked up): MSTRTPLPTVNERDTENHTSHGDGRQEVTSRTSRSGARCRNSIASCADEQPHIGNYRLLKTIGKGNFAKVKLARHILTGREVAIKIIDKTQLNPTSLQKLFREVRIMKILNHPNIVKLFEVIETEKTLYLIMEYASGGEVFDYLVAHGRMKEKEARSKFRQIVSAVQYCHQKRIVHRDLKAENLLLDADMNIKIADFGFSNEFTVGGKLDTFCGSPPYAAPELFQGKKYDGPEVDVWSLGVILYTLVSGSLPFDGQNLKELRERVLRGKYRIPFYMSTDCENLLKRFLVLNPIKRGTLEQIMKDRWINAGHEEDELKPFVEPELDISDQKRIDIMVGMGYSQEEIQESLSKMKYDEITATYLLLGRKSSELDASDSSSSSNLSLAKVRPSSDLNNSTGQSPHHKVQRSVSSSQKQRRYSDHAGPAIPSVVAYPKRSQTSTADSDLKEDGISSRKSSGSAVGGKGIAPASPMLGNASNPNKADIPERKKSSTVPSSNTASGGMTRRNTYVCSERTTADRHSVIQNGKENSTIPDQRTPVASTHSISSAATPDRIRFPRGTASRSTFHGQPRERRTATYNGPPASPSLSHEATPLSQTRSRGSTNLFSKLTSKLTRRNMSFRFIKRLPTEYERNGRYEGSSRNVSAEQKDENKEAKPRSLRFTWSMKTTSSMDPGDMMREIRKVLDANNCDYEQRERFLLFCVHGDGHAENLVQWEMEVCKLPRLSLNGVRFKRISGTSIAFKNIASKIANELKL
Membrane-associated tyrosine- and threonine-specific cdc2-inhibitory kinase (Homo sapiens), sequence (Q99640 whole entry): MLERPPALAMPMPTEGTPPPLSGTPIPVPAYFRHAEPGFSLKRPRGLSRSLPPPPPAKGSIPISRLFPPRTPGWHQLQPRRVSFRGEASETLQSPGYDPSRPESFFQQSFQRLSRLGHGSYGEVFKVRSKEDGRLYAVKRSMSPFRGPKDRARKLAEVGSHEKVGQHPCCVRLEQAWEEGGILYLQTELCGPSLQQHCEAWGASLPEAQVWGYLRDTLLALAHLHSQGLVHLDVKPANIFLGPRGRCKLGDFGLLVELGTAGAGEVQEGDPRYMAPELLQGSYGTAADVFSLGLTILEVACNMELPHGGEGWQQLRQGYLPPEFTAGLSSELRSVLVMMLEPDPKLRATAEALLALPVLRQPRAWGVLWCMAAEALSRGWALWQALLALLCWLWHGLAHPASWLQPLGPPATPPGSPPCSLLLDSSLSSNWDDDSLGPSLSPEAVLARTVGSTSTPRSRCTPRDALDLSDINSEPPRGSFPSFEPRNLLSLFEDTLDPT
Neuropeptide Y receptor type 1 (Homo sapiens), sequence (P25929 whole entry): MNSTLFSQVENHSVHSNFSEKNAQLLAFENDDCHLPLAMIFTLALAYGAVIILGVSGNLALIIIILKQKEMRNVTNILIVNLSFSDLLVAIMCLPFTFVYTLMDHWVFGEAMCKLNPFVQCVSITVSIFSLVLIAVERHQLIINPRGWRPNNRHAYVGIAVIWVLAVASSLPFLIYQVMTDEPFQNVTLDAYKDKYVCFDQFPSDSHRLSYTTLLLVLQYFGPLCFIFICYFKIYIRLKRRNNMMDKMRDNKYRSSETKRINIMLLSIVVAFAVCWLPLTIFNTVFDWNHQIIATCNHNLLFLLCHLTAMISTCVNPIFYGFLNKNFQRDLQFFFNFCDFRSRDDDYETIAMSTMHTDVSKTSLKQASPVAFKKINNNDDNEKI
Platelet-derived growth factor receptor beta (Homo sapiens), sequence (P09619 whole entry): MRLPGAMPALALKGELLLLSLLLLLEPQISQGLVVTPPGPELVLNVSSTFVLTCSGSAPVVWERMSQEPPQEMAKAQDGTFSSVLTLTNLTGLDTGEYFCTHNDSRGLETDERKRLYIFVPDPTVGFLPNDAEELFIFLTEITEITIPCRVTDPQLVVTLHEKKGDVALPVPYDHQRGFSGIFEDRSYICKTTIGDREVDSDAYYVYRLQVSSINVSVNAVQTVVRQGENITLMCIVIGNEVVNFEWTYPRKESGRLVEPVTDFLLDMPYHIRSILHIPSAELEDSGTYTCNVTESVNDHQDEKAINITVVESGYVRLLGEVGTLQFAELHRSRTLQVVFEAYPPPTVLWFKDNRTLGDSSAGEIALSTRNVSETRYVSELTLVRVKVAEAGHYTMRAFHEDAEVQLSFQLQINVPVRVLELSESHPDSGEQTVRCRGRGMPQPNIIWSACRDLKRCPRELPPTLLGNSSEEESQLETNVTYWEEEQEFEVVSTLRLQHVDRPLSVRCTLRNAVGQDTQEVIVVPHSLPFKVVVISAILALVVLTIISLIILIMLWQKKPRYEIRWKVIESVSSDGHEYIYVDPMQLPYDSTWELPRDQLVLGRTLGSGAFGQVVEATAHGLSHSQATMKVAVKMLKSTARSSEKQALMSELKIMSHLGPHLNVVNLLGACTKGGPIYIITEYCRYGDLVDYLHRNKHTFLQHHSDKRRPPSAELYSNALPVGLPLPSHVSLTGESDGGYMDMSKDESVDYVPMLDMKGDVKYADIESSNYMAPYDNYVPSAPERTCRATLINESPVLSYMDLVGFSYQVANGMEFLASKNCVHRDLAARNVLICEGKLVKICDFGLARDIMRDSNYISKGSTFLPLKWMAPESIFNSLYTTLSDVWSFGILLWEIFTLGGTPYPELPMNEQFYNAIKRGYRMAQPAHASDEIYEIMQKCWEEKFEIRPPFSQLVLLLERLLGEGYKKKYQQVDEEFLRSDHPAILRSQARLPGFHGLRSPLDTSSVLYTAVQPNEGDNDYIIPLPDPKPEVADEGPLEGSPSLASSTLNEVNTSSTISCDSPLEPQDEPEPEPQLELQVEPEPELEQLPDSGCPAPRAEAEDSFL
LIM domain kinase 2 (Homo sapiens), sequence (P53671 whole entry, looked up, the tested form may be a part): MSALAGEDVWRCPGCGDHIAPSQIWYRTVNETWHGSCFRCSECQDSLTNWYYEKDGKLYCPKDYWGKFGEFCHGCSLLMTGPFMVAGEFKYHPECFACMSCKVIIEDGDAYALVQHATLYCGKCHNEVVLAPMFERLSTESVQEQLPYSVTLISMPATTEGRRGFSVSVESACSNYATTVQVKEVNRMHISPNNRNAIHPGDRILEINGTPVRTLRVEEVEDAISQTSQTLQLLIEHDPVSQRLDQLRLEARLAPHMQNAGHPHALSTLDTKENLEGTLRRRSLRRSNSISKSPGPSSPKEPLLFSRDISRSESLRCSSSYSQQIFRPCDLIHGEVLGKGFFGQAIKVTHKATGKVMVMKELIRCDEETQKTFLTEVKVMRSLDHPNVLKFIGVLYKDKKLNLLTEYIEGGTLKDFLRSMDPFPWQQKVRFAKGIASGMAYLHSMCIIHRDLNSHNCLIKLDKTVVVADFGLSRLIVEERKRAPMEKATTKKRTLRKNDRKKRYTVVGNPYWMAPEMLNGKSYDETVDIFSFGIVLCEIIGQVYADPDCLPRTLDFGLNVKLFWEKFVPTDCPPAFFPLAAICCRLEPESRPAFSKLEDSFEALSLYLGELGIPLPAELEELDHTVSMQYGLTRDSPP
SRSF protein kinase 3 (Homo sapiens), sequence (Q9UPE1 whole entry): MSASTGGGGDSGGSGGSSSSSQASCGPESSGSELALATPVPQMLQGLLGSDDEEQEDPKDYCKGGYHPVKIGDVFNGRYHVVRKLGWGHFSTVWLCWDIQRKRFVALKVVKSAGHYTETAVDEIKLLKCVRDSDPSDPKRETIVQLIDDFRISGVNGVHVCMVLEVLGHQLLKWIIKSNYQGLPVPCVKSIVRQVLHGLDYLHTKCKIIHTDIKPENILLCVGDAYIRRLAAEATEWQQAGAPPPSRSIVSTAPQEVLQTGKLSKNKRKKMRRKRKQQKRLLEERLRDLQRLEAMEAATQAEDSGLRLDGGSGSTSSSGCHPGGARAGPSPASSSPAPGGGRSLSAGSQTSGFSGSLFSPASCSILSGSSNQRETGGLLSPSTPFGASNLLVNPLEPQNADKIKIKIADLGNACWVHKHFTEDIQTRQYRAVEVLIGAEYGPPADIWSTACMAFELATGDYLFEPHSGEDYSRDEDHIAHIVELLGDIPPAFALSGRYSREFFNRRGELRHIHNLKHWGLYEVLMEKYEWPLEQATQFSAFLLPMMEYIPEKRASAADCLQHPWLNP
Beta-2 adrenergic receptor (Homo sapiens), sequence (P07550 whole entry, looked up): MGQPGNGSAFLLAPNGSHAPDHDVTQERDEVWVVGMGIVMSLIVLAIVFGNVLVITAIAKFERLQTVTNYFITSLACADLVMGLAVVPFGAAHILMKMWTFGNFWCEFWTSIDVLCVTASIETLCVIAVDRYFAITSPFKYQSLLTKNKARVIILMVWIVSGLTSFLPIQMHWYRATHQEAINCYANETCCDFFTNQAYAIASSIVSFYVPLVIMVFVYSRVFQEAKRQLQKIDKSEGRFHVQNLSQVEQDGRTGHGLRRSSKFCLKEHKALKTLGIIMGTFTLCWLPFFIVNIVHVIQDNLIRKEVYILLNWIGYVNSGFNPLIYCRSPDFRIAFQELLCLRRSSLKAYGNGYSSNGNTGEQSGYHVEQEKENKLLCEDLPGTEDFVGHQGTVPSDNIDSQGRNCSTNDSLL

O=C(NS(=O)(=O)c1ccc(NCC2CCOCC2)c([N+](=O)[O-])c1)c1ccc(N2CCN(Cc3ccc(C(F)(F)F)cc3-c3ccc(Cl)cc3)CC2)cc1Oc1cnc2[nH]ccc2c1 [A-1210227]
inhibition at 60 min, 10 µM [1]: -4.3%
% Inhibition of Control Specific Binding (Mean n=2) [2]: -5.2%
% Inhibition of Control Specific Binding (Mean n=2) [3]: 10.5%
% Inhibition of Control Specific Binding (Mean n=2) [4]: -3.9%
% Inhibition of Control Specific Binding (Mean n=2) [5]: -2.1%
% Inhibition of Control Specific Binding (Mean n=2) [6]: -7.6%
% Inhibition of Control Specific Binding (Mean n=2) [7]: 3.1%
residual activity [8]: 82%
residual activity [9]: 96%
residual activity [10]: 74%
residual activity [11]: 100%
residual activity [12]: 100%
residual activity [13]: 97%
residual activity [14]: 0%
residual activity [15]: 100%
residual activity [16]: 83%
residual activity [17]: 100%
residual activity [18]: 90%
residual activity [19]: 76%
residual activity [20]: 100%
residual activity [21]: 99%
residual activity [22]: 81%
residual activity [23]: 78%
residual activity [24]: 100%
residual activity [25]: 97%
residual activity [26]: 100%
residual activity [27]: 100%
residual activity [28]: 90%
residual activity [29]: 90%
residual activity [30]: 89%
residual activity [31]: 100%
residual activity [32]: 100%
residual activity [33]: 100%
residual activity [34]: 95%
residual activity [35]: 100%
residual activity [36]: 100%
residual activity [37]: 100%
inhibition [38]: -6.15%

CO[C@H]1CC[C@H](CNc2ccc(S(=O)(=O)NC(=O)c3ccc(N4CCN(CC5=C(c6ccc(Cl)cc6)CC(C)(C)CC5)CC4)cc3Oc3cnc4[nH]ccc4c3)cc2[N+](=O)[O-])CC1 [A-1211212]
inhibition at 60 min, 10 µM [1]: 16.9%
% Inhibition of Control Specific Binding (Mean n=2) [2]: -11.2%
% Inhibition of Control Specific Binding (Mean n=2) [3]: -1%
% Inhibition of Control Specific Binding (Mean n=2) [4]: 19.3%
% Inhibition of Control Specific Binding (Mean n=2) [5]: -15.7%
% Inhibition of Control Specific Binding (Mean n=2) [6]: -3.3%
% Inhibition of Control Specific Binding (Mean n=2) [7]: 5.9%
residual activity [8]: 100%
residual activity [9]: 100%
residual activity [10]: 72%
residual activity [11]: 100%
residual activity [12]: 100%
residual activity [13]: 87%
residual activity [14]: 81%
residual activity [15]: 86%
residual activity [16]: 89%
residual activity [17]: 100%
residual activity [18]: 60%
residual activity [19]: 78%
residual activity [20]: 100%
residual activity [21]: 100%
residual activity [22]: 100%
residual activity [23]: 82%
residual activity [24]: 73%
residual activity [25]: 80%
residual activity [26]: 96%
residual activity [27]: 99%
residual activity [28]: 100%
residual activity [29]: 86%
residual activity [30]: 76%
residual activity [31]: 87%
residual activity [32]: 88%
residual activity [33]: 93%
residual activity [34]: 90%
residual activity [35]: 100%
residual activity [36]: 100%
residual activity [37]: 100%
inhibition [38]: 6.23%
